Earlier results on 5 compounds are cited in US20260034249A1, “COMPOSITIONS AND METHODS FOR MODIFYING FERTILITY” (The Broad Institute, Inc., priority 2023, published 2026).

The target in one data set is T1, MT2 over MT1 receptor (Homo sapiens, UniProt P49286).
T1 sequence (P49286 1-362): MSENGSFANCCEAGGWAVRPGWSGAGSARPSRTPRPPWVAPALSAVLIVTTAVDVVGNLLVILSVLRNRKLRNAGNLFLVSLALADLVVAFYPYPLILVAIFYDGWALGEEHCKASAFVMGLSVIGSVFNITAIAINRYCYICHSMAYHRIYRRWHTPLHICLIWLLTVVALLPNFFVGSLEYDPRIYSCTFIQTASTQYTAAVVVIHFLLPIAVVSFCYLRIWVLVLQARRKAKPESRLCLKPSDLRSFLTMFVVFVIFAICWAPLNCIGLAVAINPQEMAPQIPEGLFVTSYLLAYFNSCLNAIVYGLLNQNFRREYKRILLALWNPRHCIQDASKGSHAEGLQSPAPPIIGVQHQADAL
Particulars: selectivity MT2 vs MT1.

With `C/C1=C/C(=O)O[C@@H]2C[C@@H](CC[C@H](C)/C=C\C=C\CC1)O[C@@](O)([C@@H]1CSC(=O)N1)C2` [Latrunculin A], in the data set with TMSB4X, the “binding of TMSB4X to actin” value is given as “Sponge toxin that prevents”.

With `CC(=O)NCCc1c(Cc2ccccc2)[nH]c2ccccc12` [Luzindole], the “affinity for MT2 over MT1 receptor” value at MT2 over MT1 receptor is 25-fold affinity for MT2 over. As for `COc1cc(C2Oc3cc([C@H]4Oc5cc(O)cc(O)c5C(=O)[C@@H]4O)ccc3OC2CO)ccc1O` (some centres unmarked) [Silibin], in the data set on Vim, the Vim expression result is “Decreases Vim expression”. `C[C@@H]1CC[C@@]2(OC1)O[C@H]1C[C@H]3[C@@H]4CC=C5C[C@@H](O[C@@H]6O[C@H](CO)[C@@H](O[C@@H]7O[C@@H](C)[C@H](O)[C@@H](O)[C@H]7O)[C@H](O)[C@H]6O[C@@H]6O[C@@H](C)[C@H](O)[C@@H](O)[C@H]6O)CC[C@]5(C)[C@H]4CC[C@]3(C)[C@H]1[C@@H]2C` [dioscin]: in the data set with Vim, the Vim expression result is listed as “Decreases Vim expression”. As for `Oc1ccc(C=Cc2cc(O)cc(O)c2)cc1` [resveratrol], the Vim expression entry with Vim is recorded as “Decreases Vim expression”.
